Test results published in ChEMBL document CHEMBL4800729 (2021).

Experiments:
[1] = target: Cyclin-dependent kinase 2/cyclin A (Homo sapiens) (UniProt P24941+P20248+P78396); assay: CDK2/cyclinA(h) Millipore kinase panel; format: protein-complex assay; details: Compound concentration 1.0 uM
[2] = target: GABA-A receptor; anion channel (Rattus norvegicus) (UniProt O09028+P15431+P18506+P18508+P19969+P20236+P23574+P23576+P28471+P28473+P30191+P62813+P63079+P63138+Q91ZM7+Q9ES14); details: Compound concentration 10.0 uM
[3] = target: Tyrosine-protein kinase TXK (Homo sapiens) (UniProt P42681); assay: Txk(h) Millipore kinase panel; details: Compound concentration 1.0 uM
[4] = target: Prostaglandin G/H synthase 1 (Homo sapiens) (UniProt P23219); assay: Cyclooxygenase COX-1 Eurofins-Panlabs enzyme assay; parameters: substrate with concentration; details: Compound concentration 10.0 uM
[5] = target: Sodium-dependent serotonin transporter (Homo sapiens) (UniProt P31645); details: Compound concentration 10.0 uM
[6] = target: RAF proto-oncogene serine/threonine-protein kinase (Homo sapiens) (UniProt P04049); assay: c-RAF(h) Millipore kinase panel; details: Compound concentration 1.0 uM
[7] = target: Insulin receptor (Homo sapiens) (UniProt P06213); assay: IR(h),activated Millipore kinase panel; details: Compound concentration 1.0 uM
[8] = target: Macrophage colony-stimulating factor 1 receptor (Homo sapiens) (UniProt P07333); assay: Fms(h) Millipore kinase panel; details: Compound concentration 1.0 uM
[9] = target: Serine/threonine-protein kinase PAK 6 (Homo sapiens) (UniProt Q9NQU5); assay: PAK6(h) Millipore kinase panel; details: Compound concentration 1.0 uM
[10] = target: LIM domain kinase 2 (Homo sapiens) (UniProt P53671); assay: LIMK2(h) Millipore kinase panel; details: Compound concentration 1.0 uM
[11] = target: Calcium/calmodulin-dependent protein kinase kinase 1 (Homo sapiens) (UniProt Q8N5S9); assay: CaMKK1(h) Millipore kinase panel; details: Compound concentration 1.0 uM
[12] = target: Interleukin-1 receptor-associated kinase 4 (Homo sapiens) (UniProt Q9NWZ3); assay: IRAK4(h) Millipore kinase panel; details: Compound concentration 1.0 uM
[13] = target: Casein kinase I isoform alpha (Homo sapiens) (UniProt P48729); assay: CK1alpha(h) Millipore kinase panel; details: Compound concentration 1.0 uM
[14] = target: Interleukin-1 receptor-associated kinase 1 (Homo sapiens) (UniProt P51617); assay: IRAK1(h) Millipore kinase panel; details: Compound concentration 1.0 uM
[15] = target: Inhibitor of nuclear factor kappa-B kinase subunit epsilon (Homo sapiens) (UniProt Q14164); assay: IKKepsilon(h Millipore kinase panel; details: Compound concentration 1.0 uM
[16] = target: AP2-associated protein kinase 1 (Homo sapiens) (UniProt Q2M2I8); assay: AAK1(h) Millipore kinase panel; details: Compound concentration 1.0 uM
[17] = target: Serine/threonine-protein kinase 32B (Homo sapiens) (UniProt Q9NY57); assay: STK32B(h) Millipore kinase panel; details: Compound concentration 1.0 uM
[18] = target: Calcium/calmodulin-dependent protein kinase type IV (Homo sapiens) (UniProt Q16566); assay: CaMKIV(h) Millipore kinase panel; details: Compound concentration 1.0 uM
[19] = target: Serine/threonine-protein kinase N2 (Homo sapiens) (UniProt Q16513); assay: PRK2(h) Millipore kinase panel; details: Compound concentration 1.0 uM
[20] = target: Platelet-derived growth factor receptor alpha (Homo sapiens) (UniProt P16234); assay: PDGFRalpha Millipore kinase panel; details: Compound concentration 1.0 uM
[21] = target: Muscle, skeletal receptor tyrosine-protein kinase (Homo sapiens) (UniProt O15146); assay: MuSK(h) Millipore kinase panel; details: Compound concentration 1.0 uM
[22] = target: Phosphorylase b kinase gamma catalytic chain, testis/liver isoform (Homo sapiens) (UniProt P15735); assay: PhKgamma2(h) Millipore kinase panel; details: Compound concentration 1.0 uM
[23] = target: TGF-beta receptor type-2 (Homo sapiens) (UniProt P37173); assay: TGFBR2(h) Millipore kinase panel; details: Compound concentration 1.0 uM
[24] = target: Myosin light chain kinase (Homo sapiens) (UniProt Q32MK0); assay: MLCK(h) Millipore kinase panel; details: Compound concentration 1.0 uM
[25] = target: Serine/threonine-protein kinase PAK 2 (Homo sapiens) (UniProt Q13177); assay: PAK2(h) Millipore kinase panel; details: Compound concentration 1.0 uM
[26] = target: SRSF protein kinase 1 (Homo sapiens) (UniProt Q96SB4); assay: SRPK1(h) Millipore kinase panel; details: Compound concentration 1.0 uM
Homo sapiens = organism: Homo sapiens; assay: CDK9/cyclinT1(h) Millipore kinase panel; details: Compound concentration 1.0 uM
[27] = target: Serine/threonine-protein kinase TBK1 (Homo sapiens) (UniProt Q9UHD2); assay: TBK1(h) Millipore kinase panel; details: Compound concentration 1.0 uM
[28] = target: Tyrosine-protein kinase ZAP-70 (Homo sapiens) (UniProt P43403); assay: ZAP_70(h) Millipore kinase panel; details: Compound concentration 1.0 uM
[29] = target: Mitogen-activated protein kinase 9 (Homo sapiens) (UniProt P45984); assay: JNK2alpha2(h) Millipore kinase panel; details: Compound concentration 1.0 uM
[30] = target: Androgen receptor (Homo sapiens) (UniProt P10275); details: Compound concentration 10.0 uM
[31] = target: Bone morphogenetic protein receptor type-2 (Homo sapiens) (UniProt Q13873); assay: BMPR2(h) Millipore kinase panel; details: Compound concentration 1.0 uM
[32] = target: Mitogen-activated protein kinase kinase kinase 3 (Homo sapiens) (UniProt Q99759); assay: MEKK3(h) Millipore kinase panel; details: Compound concentration 1.0 uM
[33] = target: Eukaryotic translation initiation factor 2-alpha kinase 3 (Homo sapiens) (UniProt Q9NZJ5); assay: PEK(h) Millipore kinase panel; details: Compound concentration 1.0 uM
[34] = target: STE20-like serine/threonine-protein kinase (Homo sapiens) (UniProt Q9H2G2); assay: SLK(h) Millipore kinase panel; details: Compound concentration 1.0 uM
[35] = target: D(3) dopamine receptor (Homo sapiens) (UniProt P35462); details: Compound concentration 10.0 uM
[36] = target: Serine/threonine-protein kinase PAK 3 (Homo sapiens) (UniProt O75914); assay: PAK3(h) Millipore kinase panel; details: Compound concentration 1.0 uM
[37] = target: NUAK family SNF1-like kinase 2 (Homo sapiens) (UniProt Q9H093); assay: NUAK2(h) Millipore kinase panel; details: Compound concentration 1.0 uM
[38] = target: T1, Muscarinic acetylcholine receptor M1 (Homo sapiens) (UniProt P11229); details: Compound concentration 10.0 uM
T1 sequence (whole entry): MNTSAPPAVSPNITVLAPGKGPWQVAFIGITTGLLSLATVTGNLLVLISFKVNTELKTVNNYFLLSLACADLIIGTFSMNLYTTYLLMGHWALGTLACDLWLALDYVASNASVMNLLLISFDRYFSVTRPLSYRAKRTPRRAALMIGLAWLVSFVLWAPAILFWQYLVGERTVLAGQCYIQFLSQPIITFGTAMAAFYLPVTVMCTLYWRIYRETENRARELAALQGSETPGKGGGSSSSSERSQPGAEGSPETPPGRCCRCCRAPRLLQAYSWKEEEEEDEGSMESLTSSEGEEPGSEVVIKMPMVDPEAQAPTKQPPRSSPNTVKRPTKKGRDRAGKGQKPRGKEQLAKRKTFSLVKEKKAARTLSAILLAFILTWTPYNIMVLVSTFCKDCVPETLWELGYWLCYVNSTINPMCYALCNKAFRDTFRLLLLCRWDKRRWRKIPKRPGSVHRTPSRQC

[39] = target: Ribosomal protein S6 kinase alpha-3 (Homo sapiens) (UniProt P51812); assay: Rsk2(h) Millipore kinase panel; details: Compound concentration 1.0 uM
[40] = target: CDK6/cyclin D3 (Homo sapiens) (UniProt P30281+Q00534); assay: CDK6/cyclinD3(h) Millipore kinase panel; format: protein-complex assay; details: Compound concentration 1.0 uM

Measured: inhibition

Serine/threonine-protein kinase PAK 2 (Homo sapiens), sequence (Q13177 whole entry): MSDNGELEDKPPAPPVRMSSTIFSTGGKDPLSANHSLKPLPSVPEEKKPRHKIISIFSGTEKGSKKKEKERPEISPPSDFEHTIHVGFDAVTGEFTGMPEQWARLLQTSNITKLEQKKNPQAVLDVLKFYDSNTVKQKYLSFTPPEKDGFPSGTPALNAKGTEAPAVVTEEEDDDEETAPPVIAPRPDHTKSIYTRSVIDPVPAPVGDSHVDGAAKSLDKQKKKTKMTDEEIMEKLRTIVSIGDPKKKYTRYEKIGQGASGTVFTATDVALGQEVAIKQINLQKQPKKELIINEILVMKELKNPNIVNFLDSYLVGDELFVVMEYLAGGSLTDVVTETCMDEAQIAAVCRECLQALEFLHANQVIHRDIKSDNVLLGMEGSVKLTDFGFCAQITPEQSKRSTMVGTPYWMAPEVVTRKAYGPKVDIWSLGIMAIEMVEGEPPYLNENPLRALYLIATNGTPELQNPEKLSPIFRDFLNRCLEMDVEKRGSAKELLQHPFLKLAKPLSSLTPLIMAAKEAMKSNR
RAF proto-oncogene serine/threonine-protein kinase (Homo sapiens), sequence (P04049 whole entry): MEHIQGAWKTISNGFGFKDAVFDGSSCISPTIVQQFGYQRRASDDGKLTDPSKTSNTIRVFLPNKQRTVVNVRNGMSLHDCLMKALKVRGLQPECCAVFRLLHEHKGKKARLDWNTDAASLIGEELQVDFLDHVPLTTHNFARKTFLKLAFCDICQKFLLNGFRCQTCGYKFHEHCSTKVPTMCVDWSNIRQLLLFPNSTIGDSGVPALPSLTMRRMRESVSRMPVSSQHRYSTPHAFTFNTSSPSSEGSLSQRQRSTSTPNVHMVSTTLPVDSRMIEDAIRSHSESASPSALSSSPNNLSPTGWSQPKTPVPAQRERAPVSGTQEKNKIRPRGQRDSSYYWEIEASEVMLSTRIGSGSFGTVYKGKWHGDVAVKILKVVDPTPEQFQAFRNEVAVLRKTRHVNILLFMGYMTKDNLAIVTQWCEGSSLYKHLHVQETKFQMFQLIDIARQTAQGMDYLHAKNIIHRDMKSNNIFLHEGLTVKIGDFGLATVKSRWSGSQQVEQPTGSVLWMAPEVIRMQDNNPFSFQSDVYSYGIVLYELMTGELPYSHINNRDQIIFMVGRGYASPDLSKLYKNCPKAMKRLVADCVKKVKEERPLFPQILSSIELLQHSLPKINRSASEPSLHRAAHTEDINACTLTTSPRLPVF
Serine/threonine-protein kinase N2 (Homo sapiens), sequence (Q16513 whole entry, looked up): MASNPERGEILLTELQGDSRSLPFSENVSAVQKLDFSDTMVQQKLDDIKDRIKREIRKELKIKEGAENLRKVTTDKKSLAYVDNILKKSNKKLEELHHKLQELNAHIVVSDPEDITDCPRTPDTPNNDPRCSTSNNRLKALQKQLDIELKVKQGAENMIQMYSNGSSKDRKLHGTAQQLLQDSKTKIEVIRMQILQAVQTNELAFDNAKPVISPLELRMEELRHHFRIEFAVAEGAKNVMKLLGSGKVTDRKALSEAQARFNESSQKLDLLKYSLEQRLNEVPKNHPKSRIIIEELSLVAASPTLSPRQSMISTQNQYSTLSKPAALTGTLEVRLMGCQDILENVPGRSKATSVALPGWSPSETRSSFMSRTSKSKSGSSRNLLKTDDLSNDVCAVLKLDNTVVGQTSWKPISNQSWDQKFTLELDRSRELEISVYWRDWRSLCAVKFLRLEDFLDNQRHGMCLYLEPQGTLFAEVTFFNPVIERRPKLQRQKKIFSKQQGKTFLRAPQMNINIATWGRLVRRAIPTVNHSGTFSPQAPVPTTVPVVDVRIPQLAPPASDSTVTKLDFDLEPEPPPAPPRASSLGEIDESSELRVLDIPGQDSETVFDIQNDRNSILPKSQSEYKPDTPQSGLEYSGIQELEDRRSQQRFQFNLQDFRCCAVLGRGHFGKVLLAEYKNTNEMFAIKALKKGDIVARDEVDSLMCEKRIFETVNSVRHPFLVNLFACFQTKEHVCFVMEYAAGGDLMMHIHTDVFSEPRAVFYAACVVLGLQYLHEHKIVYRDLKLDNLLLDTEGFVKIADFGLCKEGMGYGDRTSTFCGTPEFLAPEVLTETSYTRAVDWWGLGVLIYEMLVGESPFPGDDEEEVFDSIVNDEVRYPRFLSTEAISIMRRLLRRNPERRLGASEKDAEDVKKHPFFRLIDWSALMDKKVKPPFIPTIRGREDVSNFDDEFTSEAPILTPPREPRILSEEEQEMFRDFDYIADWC
Mitogen-activated protein kinase kinase kinase 3 (Homo sapiens), sequence (Q99759 whole entry): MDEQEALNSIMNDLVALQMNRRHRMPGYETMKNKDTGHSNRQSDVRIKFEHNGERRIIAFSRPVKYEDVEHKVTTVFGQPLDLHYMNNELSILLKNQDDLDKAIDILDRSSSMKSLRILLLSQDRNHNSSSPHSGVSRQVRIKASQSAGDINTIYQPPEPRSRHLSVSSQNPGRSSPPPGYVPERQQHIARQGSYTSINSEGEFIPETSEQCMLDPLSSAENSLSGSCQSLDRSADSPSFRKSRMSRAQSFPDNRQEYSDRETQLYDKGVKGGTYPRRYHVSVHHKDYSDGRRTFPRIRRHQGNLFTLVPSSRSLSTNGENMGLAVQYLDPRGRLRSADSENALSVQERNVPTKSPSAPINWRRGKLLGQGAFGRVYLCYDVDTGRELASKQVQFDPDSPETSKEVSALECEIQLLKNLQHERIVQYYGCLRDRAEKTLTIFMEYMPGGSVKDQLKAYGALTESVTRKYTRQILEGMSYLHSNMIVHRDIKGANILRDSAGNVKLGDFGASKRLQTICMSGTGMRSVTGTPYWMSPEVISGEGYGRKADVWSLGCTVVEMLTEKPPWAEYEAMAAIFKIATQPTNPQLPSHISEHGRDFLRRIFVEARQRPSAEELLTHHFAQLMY
Insulin receptor (Homo sapiens), sequence (P06213 28-758 limits assumed): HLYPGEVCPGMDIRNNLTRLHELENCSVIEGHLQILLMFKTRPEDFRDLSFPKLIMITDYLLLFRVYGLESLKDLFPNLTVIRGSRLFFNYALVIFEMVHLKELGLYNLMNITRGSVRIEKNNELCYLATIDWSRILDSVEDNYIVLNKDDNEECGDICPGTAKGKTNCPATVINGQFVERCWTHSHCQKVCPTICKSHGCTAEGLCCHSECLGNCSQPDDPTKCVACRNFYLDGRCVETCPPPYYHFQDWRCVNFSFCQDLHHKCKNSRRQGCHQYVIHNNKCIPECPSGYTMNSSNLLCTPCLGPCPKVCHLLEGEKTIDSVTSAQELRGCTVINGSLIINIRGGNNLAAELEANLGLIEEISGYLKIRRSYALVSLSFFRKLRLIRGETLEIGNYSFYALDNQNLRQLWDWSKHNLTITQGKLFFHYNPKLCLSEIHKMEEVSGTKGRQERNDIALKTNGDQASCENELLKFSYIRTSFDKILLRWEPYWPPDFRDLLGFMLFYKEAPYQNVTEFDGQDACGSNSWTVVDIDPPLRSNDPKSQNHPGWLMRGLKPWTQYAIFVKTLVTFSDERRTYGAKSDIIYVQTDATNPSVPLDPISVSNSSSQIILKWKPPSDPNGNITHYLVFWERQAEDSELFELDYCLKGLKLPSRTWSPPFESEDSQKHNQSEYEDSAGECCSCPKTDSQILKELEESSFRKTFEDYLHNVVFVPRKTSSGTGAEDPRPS
Insulin receptor (Homo sapiens), sequence (P06213 763-1382 limits assumed): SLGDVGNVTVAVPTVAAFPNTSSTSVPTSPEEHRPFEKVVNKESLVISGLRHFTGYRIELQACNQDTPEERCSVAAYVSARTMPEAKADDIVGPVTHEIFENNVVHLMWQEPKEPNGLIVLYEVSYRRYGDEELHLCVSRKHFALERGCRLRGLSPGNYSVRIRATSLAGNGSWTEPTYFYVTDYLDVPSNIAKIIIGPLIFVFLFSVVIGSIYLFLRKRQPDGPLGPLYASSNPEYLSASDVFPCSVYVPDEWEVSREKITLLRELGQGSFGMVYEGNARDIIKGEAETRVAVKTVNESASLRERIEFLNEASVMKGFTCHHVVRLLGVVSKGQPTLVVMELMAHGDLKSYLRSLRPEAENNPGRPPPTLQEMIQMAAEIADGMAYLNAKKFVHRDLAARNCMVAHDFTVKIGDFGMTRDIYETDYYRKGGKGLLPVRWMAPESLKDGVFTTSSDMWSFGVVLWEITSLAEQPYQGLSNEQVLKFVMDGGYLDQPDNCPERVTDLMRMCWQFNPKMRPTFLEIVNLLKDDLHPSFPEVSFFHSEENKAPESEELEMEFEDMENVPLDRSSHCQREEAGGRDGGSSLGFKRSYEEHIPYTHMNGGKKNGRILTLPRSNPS
NUAK family SNF1-like kinase 2 (Homo sapiens), sequence (Q9H093 whole entry): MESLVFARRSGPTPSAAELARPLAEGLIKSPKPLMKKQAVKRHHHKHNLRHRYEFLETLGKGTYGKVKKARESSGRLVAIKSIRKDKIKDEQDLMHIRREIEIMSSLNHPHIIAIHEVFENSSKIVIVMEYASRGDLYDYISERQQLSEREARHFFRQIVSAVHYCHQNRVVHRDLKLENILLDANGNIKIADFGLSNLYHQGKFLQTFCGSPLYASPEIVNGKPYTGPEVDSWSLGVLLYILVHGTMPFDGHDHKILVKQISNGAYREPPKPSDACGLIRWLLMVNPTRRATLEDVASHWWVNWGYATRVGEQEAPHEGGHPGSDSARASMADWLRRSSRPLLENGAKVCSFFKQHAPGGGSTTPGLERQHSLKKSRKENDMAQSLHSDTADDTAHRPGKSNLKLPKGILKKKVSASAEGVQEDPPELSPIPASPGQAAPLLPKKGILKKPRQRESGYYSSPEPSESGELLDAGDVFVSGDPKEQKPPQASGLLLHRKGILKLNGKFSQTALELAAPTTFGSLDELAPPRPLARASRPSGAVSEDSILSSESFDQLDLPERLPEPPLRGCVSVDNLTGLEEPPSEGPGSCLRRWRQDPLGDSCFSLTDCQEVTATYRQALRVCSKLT

CC[C@@H](Nc1c(C#N)c(-c2ccc(-c3cccc(C)c3F)cc2)nc2cnccc12)C(=O)O [BAY-091]
inactive: [1] -1.5% | [2] 12% | [3] -2.9% | [4] 19% | [5] 10% | [6] 36% | [7] 9.43% | [8] -5.04% | [9] -5.79% | [10] 3.03% | [11] 5.03% | [12] 6.22% | [13] 3.17% | [14] -3.31% | [15] 10.2% | [16] 7.44% | [17] 14.9% | [18] 7.26% | [19] 5.02% | [20] 9.33% | [21] 5.1% | [22] -0.34% | [23] 19.3% | [24] -5.27% | [25] 24.9% | [26] 3.4% | Homo sapiens 11.8% | [27] 8.44% | [28] 2.99% | [29] -1.41% | [30] 14% | [31] 4.45% | [32] -3.58% | [33] 3.26% | [34] 19.7% | [35] 27% | [36] 4.13% | [37] 10.4% | [38] -5.6% | [39] 1.78% | [40] 8.28%
